Assay results from patent US20120135997A1, “PHARMACEUTICAL COMPOSITION COMPRISING A LACTAM OR BENZENESULFONAMIDE COMPOUND” (Shionogi & Co., Ltd., priority 2009, published 2012).

Columns and labels:
Experiment in all cases: CYP inhibition test, pooled human liver microsomes
Assay type in all cases: in vitro ADME
[1] = target: T1, CYP1A2 (Homo sapiens, UniProt P05177); settings: O-deethylation of 7-ethoxyresorufin
T1 construct: from tissue; host or cells: pooled human liver microsomes
T1 sequence (P05177 1-516): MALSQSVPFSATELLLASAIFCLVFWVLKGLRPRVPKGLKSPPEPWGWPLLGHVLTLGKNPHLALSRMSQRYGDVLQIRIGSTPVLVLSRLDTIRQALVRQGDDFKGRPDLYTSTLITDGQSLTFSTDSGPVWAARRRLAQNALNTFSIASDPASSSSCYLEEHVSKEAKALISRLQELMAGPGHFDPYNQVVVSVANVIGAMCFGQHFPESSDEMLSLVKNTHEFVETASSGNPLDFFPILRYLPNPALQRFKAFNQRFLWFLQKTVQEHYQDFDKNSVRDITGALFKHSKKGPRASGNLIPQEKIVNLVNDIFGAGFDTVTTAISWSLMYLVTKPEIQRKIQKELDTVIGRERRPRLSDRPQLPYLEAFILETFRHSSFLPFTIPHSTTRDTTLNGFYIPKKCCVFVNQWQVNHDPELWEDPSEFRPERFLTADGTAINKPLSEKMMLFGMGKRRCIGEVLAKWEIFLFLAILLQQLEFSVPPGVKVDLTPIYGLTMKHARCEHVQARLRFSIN
Description: (§1) Using commercially available pooled human liver microsomes and employing typical substrate metabolic reactions of 5 major species of human CYP enzymes (CYP1A2, 2C9, 2C19, 2D6, 3A4), namely, O-deethylation of 7-ethoxyresorufin (CYP1A2), methyl-hydroxylation of tolbutamide (CYP2C9), 4′-hydroxylation of mephenyloin (CYP2C19), O-demethylation of dextromethorphan (CYP2D6), and hydroxylation of terfenadine (CYP3A4), as indicator reactions, the degree of inhibition of each metabolite production by each test compound is evaluated. The reaction conditions are as follows: Substrate: 0.5 μmol/L of ethoxyresorufin (CYP1A2), 100 μmol/L of tolbutamide (CYP2C9), 50 μmol/L of S-mephenyloin (CYP2C19), 5 μmol/L of dextromethorphan (CYP2D6), 1 μmol/L of terfenadine (CYP3A4); Reaction time period: 15 minutes; Reaction temperature: 37° C.; Enzyme: pooled human liver microsomes 0.2 mg protein/mL; Test compound concentration: 1, 5, 10 and 20 μmol/L (four different concentrations). As a reaction solution, the respective five substrates, human liver microsomes, and test compound in the aforementioned amounts are added to a 50 mM Hepes buffer in a 96-well plate. NADPH, which is a coenzyme, is added thereto to start the indicator metabolic reaction. The reaction proceeds for 15 minutes at 37° C., and the solution of methanol/acetonitrile=1/1 (v/v) is added so as to terminate the reaction. Centrifugation is performed for 15 minutes at 3000 rpm, and each metabolite in the centrifuged supernatant is quantified. Namely, resorufin (CYP1A2 metabolite) is quantified with a fluorescence multilabel counter, and hydroxylated tolbutamide (CYP2C9 metabolite), 4′-hydroxylated mephenyloin (CYP2C19 metabolite), dextrorphan (CYP2D6 metabolite) and alcoholized terfenadine (CYP3A4 metabolite) are quantified with LC/MS/MS. Control (100%) is prepared by adding only DMSO, a solvent to dissolve the test compound, to the reaction system. The remaining activity (%) at each concentration after adding the test compound solution is calculated, and the […] is calculated from the concentration and inhibition percentage by inverse estimation with the logistic model.

[2] = target: T2, CYP2C19 (Homo sapiens, UniProt P33261); settings: 4′-hydroxylation of mephenyloin
T2 construct: from tissue; host or cells: pooled human liver microsomes
T2 sequence (P33261 whole entry): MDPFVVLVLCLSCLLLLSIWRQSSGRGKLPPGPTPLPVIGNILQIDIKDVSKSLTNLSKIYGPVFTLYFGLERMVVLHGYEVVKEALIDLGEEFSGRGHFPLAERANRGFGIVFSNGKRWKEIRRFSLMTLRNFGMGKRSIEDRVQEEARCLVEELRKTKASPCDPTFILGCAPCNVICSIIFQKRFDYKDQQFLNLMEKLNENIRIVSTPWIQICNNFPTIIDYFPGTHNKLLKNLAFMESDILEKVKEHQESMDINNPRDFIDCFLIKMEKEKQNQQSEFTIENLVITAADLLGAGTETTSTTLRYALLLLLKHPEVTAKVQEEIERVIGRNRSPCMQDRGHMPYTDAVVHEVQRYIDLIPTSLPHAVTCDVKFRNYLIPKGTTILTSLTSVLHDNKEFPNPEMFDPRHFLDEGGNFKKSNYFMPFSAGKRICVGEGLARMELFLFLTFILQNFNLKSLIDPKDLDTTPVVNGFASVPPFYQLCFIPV
Description: as §1

[3] = target: T3, CYP2C9 (Homo sapiens, UniProt P11712); settings: methyl-hydroxylation of tolbutamide
T3 construct: from tissue; host or cells: pooled human liver microsomes
T3 sequence (P11712 whole entry): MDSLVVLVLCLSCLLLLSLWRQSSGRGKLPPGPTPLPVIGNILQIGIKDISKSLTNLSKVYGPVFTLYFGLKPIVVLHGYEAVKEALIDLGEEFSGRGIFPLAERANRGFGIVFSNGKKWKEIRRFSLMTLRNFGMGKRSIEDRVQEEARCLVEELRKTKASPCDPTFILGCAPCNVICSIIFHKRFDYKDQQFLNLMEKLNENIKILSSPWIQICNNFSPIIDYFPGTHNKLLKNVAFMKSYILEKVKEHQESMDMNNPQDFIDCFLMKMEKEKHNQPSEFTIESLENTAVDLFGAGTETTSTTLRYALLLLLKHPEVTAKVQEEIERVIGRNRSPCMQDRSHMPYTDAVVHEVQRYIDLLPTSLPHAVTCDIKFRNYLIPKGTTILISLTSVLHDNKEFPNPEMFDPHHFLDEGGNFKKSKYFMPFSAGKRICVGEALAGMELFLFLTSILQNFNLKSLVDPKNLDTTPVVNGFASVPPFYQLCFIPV
Description: as §1

[4] = target: T4, CYP2D6 (Homo sapiens, UniProt P10635); settings: O-demethylation of dextromethorphan
T4 construct: from tissue; host or cells: pooled human liver microsomes
T4 sequence (P10635 whole entry): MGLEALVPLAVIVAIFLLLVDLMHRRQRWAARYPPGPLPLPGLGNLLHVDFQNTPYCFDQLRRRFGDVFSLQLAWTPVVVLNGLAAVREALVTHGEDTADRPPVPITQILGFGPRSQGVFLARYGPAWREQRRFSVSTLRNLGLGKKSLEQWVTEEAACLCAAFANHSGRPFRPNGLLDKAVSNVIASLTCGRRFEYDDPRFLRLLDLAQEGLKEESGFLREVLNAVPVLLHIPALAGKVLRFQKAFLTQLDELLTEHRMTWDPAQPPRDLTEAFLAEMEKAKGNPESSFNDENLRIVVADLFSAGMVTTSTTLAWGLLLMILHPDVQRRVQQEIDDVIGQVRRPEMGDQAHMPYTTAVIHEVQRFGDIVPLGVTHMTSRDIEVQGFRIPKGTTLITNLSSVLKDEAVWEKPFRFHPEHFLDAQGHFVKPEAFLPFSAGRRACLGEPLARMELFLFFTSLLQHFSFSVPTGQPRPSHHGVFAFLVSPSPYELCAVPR
Description: as §1

[5] = target: CYP3A4 (Homo sapiens, UniProt P08684); parameters: from tissue; host or cells: pooled human liver microsomes; settings: hydroxylation of terfenadine
CYP3A4, sequence (P08684 whole entry): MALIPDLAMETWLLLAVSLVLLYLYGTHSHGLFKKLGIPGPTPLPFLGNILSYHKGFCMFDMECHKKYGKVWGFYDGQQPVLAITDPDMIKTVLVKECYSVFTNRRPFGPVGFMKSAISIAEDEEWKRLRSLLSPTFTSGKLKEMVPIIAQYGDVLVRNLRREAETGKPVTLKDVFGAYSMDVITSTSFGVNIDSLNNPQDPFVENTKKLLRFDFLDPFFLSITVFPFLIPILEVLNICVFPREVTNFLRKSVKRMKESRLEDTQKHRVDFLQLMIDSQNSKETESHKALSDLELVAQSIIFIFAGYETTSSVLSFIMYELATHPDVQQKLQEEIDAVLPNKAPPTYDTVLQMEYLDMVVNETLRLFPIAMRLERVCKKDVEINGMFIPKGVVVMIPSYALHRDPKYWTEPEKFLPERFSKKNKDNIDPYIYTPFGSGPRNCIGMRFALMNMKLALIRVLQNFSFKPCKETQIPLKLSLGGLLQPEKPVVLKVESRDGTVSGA
Description: Using commercially available pooled human liver microsomes and employing typical substrate metabolic reactions of 5 major species of human CYP enzymes (CYP1A2, 2C9, 2C19, 2D6, 3A4), namely, O-deethylation of 7-ethoxyresorufin (CYP1A2), methyl-hydroxylation of tolbutamide (CYP2C9), 4′-hydroxylation of mephenyloin (CYP2C19), O-demethylation of dextromethorphan (CYP2D6), and hydroxylation of terfenadine (CYP3A4), as indicator reactions, the degree of inhibition of each metabolite production by each test compound is evaluated. […] Centrifugation is performed for 15 minutes at 3000 rpm, and each metabolite in the centrifuged supernatant is quantified. Namely, resorufin (CYP1A2 metabolite) is quantified with a fluorescence multilabel counter, and hydroxylated tolbutamide (CYP2C9 metabolite), 4′-hydroxylated mephenyloin (CYP2C19 metabolite), dextrorphan (CYP2D6 metabolite) and alcoholized terfenadine (CYP3A4 metabolite) are quantified with LC/MS/MS. […] The remaining activity (%) at each concentration after adding the test compound solution is calculated, and the […] is calculated from the concentration and inhibition percentage by inverse estimation with the logistic model.

Measured: IC50

COc1cc(NS(=O)(=O)c2ccccc2CO)ccc1-n1cnc(C)c1 [Compound 121]
> 10 µM: all assays above
